# Where a name gives a salt, the structure may show the parent alone.
# How the values were obtained:
# [1] = In vitro release, human plasma system (dialysis bag in PBS); assay type: in vitro ADME; conditions: 37 °C, within 4 hours
# Description: (§1) Two in vitro release systems were used in this study, the first system was the plasma free environment and the second system was the human plasma environment. To set up the first in vitro release system, 1.0 mL of liposomal rivastigmine formulation prepared according to Example 1 and 1.0 mL of free rivastigmine tartrate were placed in separate dialysis bags (Spectra/Pro*6 dialysis membrane, MWCO 50 kDa, Spectrum Labs) and both ends of the dialysis bags were sealed. To set up the second in vitro release system, 1.0 mL of liposomal rivastigmine formulation prepared according to Example 1 and 1.0 mL of free rivastigmine tartrate were placed in separate dialysis bags, each containing 1 mL of human plasma (Valley Biomedical, Inc.) and both ends of the dialysis bags were sealed. Each dialysis bag was immersed in 25 mL PBS at pH 7.4 in a 50-mL centrifuge tube and incubated in a water bath at 37±1° C. for 24 hours. At designated time points after incubation (1, 2, 4, 6 and 24 hours), 0.5 mL aliquot from the 25-mL PBS was sampled and 0.5 mL of fresh PBS was added to replace the sampling aliquot. Drug concentrations of the sampling aliquots at each time point were analyzed using high performance liquid chromatography (HPLC) to create the in vitro release profile.
# [2] = PK study of liposomal rivastigmine in rats, subcutaneous injection; assay type: in vivo, Sprague-Dawley rats
# Description: An in vivo PK evaluation of the liposomal rivastigmine formulation was performed using 7-8 weeks old female Sprague-Dawley rats. The rats were housed in a holding room which operated on a 12-hr light/12-hr dark circadian cycle with free access to water and food.
# The rats were divided into two groups (n=3 in each group), one group received subcutaneous injection of 10 mg/kg of free rivastigmine tartrate, prepared by dissolving rivastigmine tartrate in ultrapure water with a final concentration of 2 mg/mL. The other group received subcutaneous injection of 10 mg/kg of liposomal rivastigmine tartrate, prepared according to Example 1. Blood samples were collected at 15 min, 1, 2, 4, 6, 8, 24, 48, and 72 hours post-injection. Plasma samples were obtained by centrifugation, kept frozen at −80° C. and analyzed using a noncompartmental analysis model in PKSolver (Comput Methods Programs Biomed. 2010; 99(3):306-314).
# [3] = In vitro release, plasma free system (dialysis bag in PBS); assay type: physicochemical; conditions: PBS pH 7.4, 37 °C, within 2 hours
# Description: as §1
# [4] = female, Sprague-Dawley, rat, plasma, sc, single subcutaneous injection 10 mg/kg
structure (smiles),measurement,setting,value
"CCN(C)C(=O)Oc1cccc([C@H](C)N(C)C)c1 [Free Rivastigmine, rivastigmine tartrate]",rivastigmine released,[1],90%
same,rivastigmine in plasma,"[2]; 8 hours post injection, FIG. 2",undetectable
same,rivastigmine released as indicated by AUC0-t,[2]; 72 hours post-injection,100%
same,AUC(0-inf),[2]; [4],899 ng·h/mL
same,AUC(0-t),[2]; [4],896 ng·h/mL
same,Cmax,[2]; [4],427 ng/mL
same,half-life,"[2]; female, Sprague-Dawley, rat, plasma, sc, single subcutaneous injection 10 mg/kg, read-out: t½ (converted)",55.8 min
same,rivastigmine released through the dialysis bag,[3],one hundred

# Reference: patent publication US12268781B2, “Sustained-release pharmaceutical compositions comprising a therapeutic agent for treating dementia and uses thereof” (priority 2018, dated 2025)
